Measured values published in patent US12060408B2, “Screening assays, modulators and modulation of activation of Receptor for Advanced Glycation End-products (RAGE)” (Monash University, priority 2017, dated 2024).

Tested on: apoE KO mice
Assay: Aortic plaque area quantitation (Sudan IV staining of aortic arch)
Format: in vivo, mouse
Description: C57bl6 mice, AGER knockout (KO) mice, apoE KO mice, AGER/apoE double knockout (DKO), Ace2/apoE DKO and AGER/Ace2/apoE triple knockout (TKO) mice were sourced and generated in-house at the AMPREP animal house. All mice were bred on a C57bl6 background. For experimental studies, male mice aged 6-8 weeks and weighing between 20-25 g were used, with at least 8 animals per group for in vivo studies and n=6/group for ex vivo studies. Throughout the study animals were given access to mouse chow and water ad libitum. All experiments were approved by the animal ethics committee of the Alfred Medical Research Precinct and conducted in accordance with the Guide for the Care and Use of Laboratory Animals published by the US National Institutes of Health (NIH Publication No. 85-23, revised 1996).
Aortic Plaque Area Quantitation Method
Aortic arches were removed from mice, cleaned of excess fat, placed in 10% neutral buffered formalin and subsequently stained with Sudan IV-Herxheimer's solution (0.5% w/vol; Gurr, BDH Limited, Poole, UK). Aortae were then dissected longitudinally, and pinned flat onto a wax pad. Plaque accumulation across the aortic arch was quantitated as the percentage area stained red.
Angiotensin Infusion Model […]

With “angiotensin II (DRVYIHPF) [Ang II, cognate ligand of AT1R]” the “atherogenesis (plaque area)” value (AGER/apoE DKO mice, four-week infusion 1 μg/kg/min) was “prevents the increase in atherogenesis” and the “atherogenesis (percentage of the aortic arch surface area staining positive to Sudan IV)” value (apoE KO mice, four-week infusion 1 μg/kg/min vs untreated) was “increases atherogenesis”.
